From US20230265151A1, “GIP/GLP1 CO-AGONIST COMPOUNDS” (priority 2020, published 2023) come the findings set out here.

SMILES strings stand for the structures. Where two headings read alike, the source gives them in different places. Where only a bound is given, the exact number is not on record here.

One may read the EC50 as the concentration that produces a half-maximal response. As usually defined, the Emax is the greatest response seen or fitted, relative to the assay's reference.

One test concerns the target T1, hGCGR (Homo sapiens, UniProt P47871).
T1 construct: expressed in transfected cells
Briefly: Functional cAMP formation (HTRF) in HEK-293 clonal cells expressing hGCGR, 0.1% bovine casein, without or with 1.0% human serum albumin. The format is cell-based. The protocol:
(§1) After a 30-min incubation at 37° C., the resulting increase in intracellular cAMP is quantitatively determined using a CisBio cAMP Dynamic 2 HTRF Assay Kit (62AM4PEJ). Briefly, cAMP levels within the cell are detected by adding the cAMP-d2 conjugate in cell lysis buffer (10 µL) followed by the antibody anti-cAMP-Eu^3+-Cryptate, also in cell lysis buffer (10 µL). The resulting competitive assay is incubated for at least 60 min at room temperature, and then is detected using a PerkinElmer Envision® instrument with excitation at 320 nm and emission at 665 nm and 620 nm. Envision units (emission at 665 nm/620 nm* 10,000) are inversely proportional to the amount of cAMP present and are converted to nM cAMP per well us-ing a cAMP standard curve. […] A relative EC50 value and percent top (Emax) are derived by non-linear regression analysis using the percent maximal response vs. the concentration of peptide added, fitted to a four-parameter logistic equation.
(In general: Changes in cAMP serve as a functional read-out for many G protein-coupled receptors.)

The target in a further test is T2, hGIPR (Homo sapiens, UniProt P48546).
T2 construct: expressed in transfected cells
T2 sequence (P48546 22-466): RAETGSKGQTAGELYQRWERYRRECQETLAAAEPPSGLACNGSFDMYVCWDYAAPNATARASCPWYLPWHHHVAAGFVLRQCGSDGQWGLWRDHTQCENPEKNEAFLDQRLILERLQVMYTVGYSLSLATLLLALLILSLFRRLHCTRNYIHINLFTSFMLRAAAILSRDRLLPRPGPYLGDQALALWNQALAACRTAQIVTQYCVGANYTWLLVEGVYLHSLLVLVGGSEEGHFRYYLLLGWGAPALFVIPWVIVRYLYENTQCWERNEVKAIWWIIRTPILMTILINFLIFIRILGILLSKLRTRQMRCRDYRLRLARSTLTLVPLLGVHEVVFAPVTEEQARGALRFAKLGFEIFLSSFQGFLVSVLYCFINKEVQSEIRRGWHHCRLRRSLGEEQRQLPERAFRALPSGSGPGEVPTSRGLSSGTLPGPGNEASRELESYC
Briefly: Functional cAMP formation (HTRF) in HEK-293 clonal cells expressing hGIPR, 0.1% bovine casein, without or with 1.0% human serum albumin. The settings on record: for EC50: cAMP, incubated at 37° C., 0.1% bovine casein (no human serum albumin), geometric mean. The format is cell-based. The protocol:
as §1

[1] abbreviates: cAMP, incubated at 37° C., 0.1% bovine casein (no human serum albumin), geometric mean, read-out: hGCGR EC50, nM (SEM, n).
Setting [2] is: HEK293, percent of maximal response to GIP(1-42)NH2, 37° C., 0.1% bovine casein, arithmetic mean, read-out: hGIPR Emax, % ± SEM.
Setting [3] is: read-out: hGIPR EC50, nM (SEM, n).

T1 sequence (P47871 26-477): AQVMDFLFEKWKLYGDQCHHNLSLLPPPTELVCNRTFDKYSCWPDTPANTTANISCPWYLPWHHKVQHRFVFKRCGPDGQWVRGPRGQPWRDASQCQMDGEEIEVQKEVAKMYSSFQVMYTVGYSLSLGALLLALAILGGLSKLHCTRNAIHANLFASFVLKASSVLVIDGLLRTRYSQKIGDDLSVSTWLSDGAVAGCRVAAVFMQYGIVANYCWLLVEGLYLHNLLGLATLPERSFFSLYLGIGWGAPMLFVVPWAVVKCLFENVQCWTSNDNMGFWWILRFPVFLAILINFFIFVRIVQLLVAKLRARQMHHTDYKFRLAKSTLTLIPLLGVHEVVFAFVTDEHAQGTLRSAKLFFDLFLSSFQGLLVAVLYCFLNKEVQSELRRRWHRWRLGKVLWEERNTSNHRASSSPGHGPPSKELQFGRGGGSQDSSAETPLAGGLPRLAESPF

Regarding `CC[C@H](C)[C@H](NC(=O)[C@H](CCCN)NC(=O)[C@H](CC(=O)O)NC(=O)[C@H](CC(C)C)NC(=O)[C@](C)(CC(C)C)NC(=O)[C@@H](NC(=O)[C@H](CO)NC(=O)[C@H](CCCCNC(=O)COCCOCCNC(=O)COCCOCCNC(=O)CC[C@H](NC(=O)CCCCCCCCCCCCC(=O)O)C(=O)O)NC(=O)[C@H](CC(=O)O)NC(=O)[C@H](CO)NC(=O)[C@@H](NC(=O)[C@](C)(Cc1ccccc1F)NC(=O)[C@@H](NC(=O)CNC(=O)[C@H](CCC(=O)O)NC(=O)C(C)(C)NC(=O)[C@@H](N)Cc1ccc(O)cc1)[C@@H](C)O)[C@@H](C)O)[C@@H](C)CC)C(=O)N[C@@H](C)C(=O)N[C@@H](CCC(N)=O)C(=O)NC(C)(C)C(=O)N[C@@H](CCCCNC(=O)COCCOCCNC(=O)COCCOCCNC(=O)CC[C@H](NC(=O)CCCCCCCCCCCCC(=O)O)C(=O)O)C(=O)N[C@@](C)(Cc1ccccc1)C(=O)N[C@H](C(=O)N[C@H](CCC(=O)O)C(=O)N[C@@](C)(Cc1ccc(O)cc1)C(=O)N[C@@H](CC(C)C)C(=O)N[C@H](C(=O)N[C@@H](CCC(=O)O)C(=O)NCC(=O)NCC(=O)N1CCC[C@H]1C(=O)N[C@@H](CO)C(=O)N[C@@H](CO)C(=O)NCC(=O)N[C@@H](C)C(=O)N1CCC[C@H]1C(=O)N1CCC[C@H]1C(=O)N1CCC[C@H]1C(=O)N[C@@H](CO)C(N)=O)[C@@H](C)CC)[C@@H](C)CC` [Example 109], the EC50 is > 9950 nM on hGCGR (setting [1]) and 0.0236 nM on hGIPR (setting [3]). Further, on hGIPR (setting [2]), the maximal response (Emax) amounted to 84.8%.

In the case of `CCCC[C@H](NC(=O)[C@H](CC(=O)O)NC(=O)[C@H](CO)NC(=O)[C@@H](NC(=O)[C@](C)(Cc1ccccc1F)NC(=O)[C@@H](NC(=O)CNC(=O)[C@H](CCC(=O)O)NC(=O)C(C)(C)NC(=O)[C@@H](N)Cc1ccc(O)cc1)[C@@H](C)O)[C@@H](C)O)C(=O)N[C@@H](CO)C(=O)N[C@H](C(=O)N[C@@](C)(CC(C)C)C(=O)N[C@@H](CC(C)C)C(=O)N[C@@H](CC(=O)O)C(=O)N[C@@H](CCCN)C(=O)N[C@@H](CCCCNC(=O)COCCOCCNC(=O)COCCOCCNC(=O)CC[C@H](NC(=O)CCCCCCCCCOc1ccc(C(=O)O)cc1)C(=O)O)C(=O)N[C@@H](C)C(=O)N[C@@H](CCC(N)=O)C(=O)NC(C)(C)C(=O)N[C@@H](CCC(=O)O)C(=O)N[C@@H](Cc1ccccc1)C(=O)N[C@H](C(=O)N[C@H](CCC(=O)O)C(=O)N[C@@](C)(Cc1ccc(O)cc1)C(=O)N[C@@H](CC(C)C)C(=O)N[C@H](C(=O)N[C@@H](CCCCNC(=O)COCCOCCNC(=O)COCCOCCNC(=O)CC[C@H](NC(=O)CCCCCCCCCOc1ccc(C(=O)O)cc1)C(=O)O)C(=O)NCC(=O)NCC(=O)N1CCC[C@H]1C(=O)N[C@@H](CO)C(=O)N[C@@H](CO)C(=O)NCC(=O)N[C@@H](C)C(=O)N1CCC[C@H]1C(=O)N1CCC[C@H]1C(=O)N1CCC[C@H]1C(=O)N[C@@H](CO)C(N)=O)[C@@H](C)CC)[C@@H](C)CC)[C@@H](C)CC` [Example 328], the EC50 at hGCGR (hGCGR EC50, nM (SEM, n), cAMP, 37° C., 0.1% bovine casein (no human serum albumin), geometric mean) was > 9950 nM; on hGCGR (hGCGR EC50, nM (SEM, n), cAMP, 37° C., 0.1% bovine casein and 1.0% human serum albumin, geometric mean (SEM, n)), > 9950 nM. At hGIPR (HEK293, read-out: hGIPR Emax, % ± SEM, cAMP, 37° C., 0.1% bovine casein and 1.0% human serum albumin, percent of maximal response to GIP(1-42)NH2), the Emax came to 85.5%.

Regarding `CC[C@H](C)[C@H](NC(=O)[C@H](CC(C)C)NC(=O)[C@](C)(Cc1ccc(O)cc1)NC(=O)[C@H](CCCCNC(=O)[C@@H](N)CCCCNC(=O)[C@@H](N)CCCCNC(=O)CC[C@H](NC(=O)CCCCCCCCCCCCC(=O)O)C(=O)O)NC(=O)[C@@H](NC(=O)[C@H](Cc1ccccc1)NC(=O)[C@H](CCC(=O)O)NC(=O)C(C)(C)NC(=O)[C@H](CCC(N)=O)NC(=O)[C@H](C)NC(=O)[C@H](CCCCNC(=O)[C@@H](N)CCCCNC(=O)[C@@H](N)CCCCNC(=O)CC[C@H](NC(=O)CCCCCCCCCCCCC(=O)O)C(=O)O)NC(=O)[C@H](CCCN)NC(=O)[C@H](CC(=O)O)NC(=O)[C@H](CC(C)C)NC(=O)[C@](C)(CC(C)C)NC(=O)[C@@H](NC(=O)[C@H](CO)NC(=O)[C@H](Cc1ccncc1)NC(=O)[C@H](CC(=O)O)NC(=O)[C@H](CO)NC(=O)[C@@H](NC(=O)[C@](C)(Cc1ccccc1F)NC(=O)[C@@H](NC(=O)CNC(=O)[C@H](CCC(=O)O)NC(=O)C(C)(C)NC(=O)[C@@H](N)Cc1ccc(O)cc1)[C@@H](C)O)[C@@H](C)O)[C@@H](C)CC)[C@@H](C)CC)C(=O)N[C@@H](CCC(=O)O)C(=O)NCC(=O)NCC(=O)N1CCC[C@H]1C(=O)N[C@@H](CO)C(=O)N[C@@H](CO)C(=O)NCC(=O)N[C@@H](C)C(=O)N1CCC[C@H]1C(=O)N1CCC[C@H]1C(=O)N1CCC[C@H]1C(=O)N[C@@H](CO)C(N)=O` [Example 162], the 50% effective concentration (EC50) was > 9950 nM on hGCGR (hGCGR EC50, nM (SEM, n), cAMP, incubated at 37° C., 0.1% bovine casein (no human serum albumin), geometric mean) and 0.022 nM on hGIPR (hGIPR EC50, nM (SEM, n)). For the same molecule, the maximal response (Emax) at hGIPR (HEK293, read-out: hGIPR Emax, % ± SEM, percent of maximal response to GIP(1-42)NH2, 37° C., 0.1% bovine casein, arithmetic mean) was determined as 89.7%.

As for `CC[C@H](C)[C@H](NC(=O)[C@H](CC(C)C)NC(=O)[C@](C)(Cc1ccc(O)cc1)NC(=O)[C@@H](CCC(=O)O)NC(=O)[C@@H](NC(=O)[C@H](Cc1ccccc1)NC(=O)[C@H](CCC(=O)O)NC(=O)C(C)(C)NC(=O)[C@H](CCC(N)=O)NC(=O)[C@H](C)NC(=O)[C@H](CCC(N)=O)NC(=O)[C@H](CCCN)NC(=O)[C@H](CC(=O)O)NC(=O)[C@H](CC(C)C)NC(=O)[C@](C)(CC(C)C)NC(=O)[C@@H](NC(=O)[C@H](CO)NC(=O)[C@H](Cc1ccncc1)NC(=O)[C@H](CC(=O)O)NC(=O)[C@H](CO)NC(=O)[C@@H](NC(=O)[C@](C)(Cc1ccccc1F)NC(=O)[C@@H](NC(=O)CNC(=O)[C@H](CCC(=O)O)NC(=O)C(C)(C)NC(=O)[C@@H](N)Cc1ccc(O)cc1)[C@@H](C)O)[C@@H](C)O)[C@@H](C)CC)[C@@H](C)CC)C(=O)N[C@@H](CCCCNC(=O)COCCOCCNC(=O)COCCOCCNC(=O)CC[C@H](NC(=O)CCCCCCCCCCCCC(=O)O)C(=O)O)C(=O)NCC(=O)NCC(=O)N[C@@H](CCCCNC(=O)COCCOCCNC(=O)COCCOCCNC(=O)CC[C@H](NC(=O)CCCCCCCCCCCCC(=O)O)C(=O)O)C(=O)N[C@@H](CO)C(=O)N[C@@H](CO)C(=O)NCC(=O)N[C@@H](C)C(=O)N1CCC[C@H]1C(=O)N1CCC[C@H]1C(=O)N1CCC[C@H]1C(=O)N[C@@H](CO)C(N)=O` [Example 86], the EC50 is > 9950 nM at hGCGR (setting [1]) and 0.0184 nM on hGIPR (setting [3]). In addition, at hGIPR (setting [2]), the Emax came out at 94.2 ± 1.16%.

Turning to `CC[C@H](C)[C@H](NC(=O)[C@H](CC(C)C)NC(=O)[C@](C)(Cc1ccc(O)cc1)NC(=O)[C@@H](CCC(=O)O)NC(=O)[C@@H](NC(=O)[C@](C)(Cc1ccccc1)NC(=O)[C@H](CCC(=O)O)NC(=O)C(C)(C)NC(=O)[C@H](CCC(N)=O)NC(=O)[C@H](C)NC(=O)[C@H](CCCCNC(=O)COCCOCCNC(=O)COCCOCCNC(=O)CC[C@H](NC(=O)CCCCCCCCCCCCC(=O)O)C(=O)O)NC(=O)[C@H](CCCN)NC(=O)[C@H](CC(=O)O)NC(=O)[C@H](CC(C)C)NC(=O)[C@](C)(CC(C)C)NC(=O)[C@@H](NC(=O)[C@H](CO)NC(=O)[C@@H](NC(=O)[C@H](CC(=O)O)NC(=O)[C@H](CO)NC(=O)[C@@H](NC(=O)[C@](C)(Cc1ccccc1F)NC(=O)[C@@H](NC(=O)CNC(=O)[C@H](CCC(=O)O)NC(=O)C(C)(C)NC(=O)[C@@H](N)Cc1ccc(O)cc1)[C@@H](C)O)[C@@H](C)O)C(C)C)[C@@H](C)CC)[C@@H](C)CC)C(=O)N[C@@H](CCC(=O)O)C(=O)NCC(=O)NCC(=O)N[C@@H](CCCCNC(=O)COCCOCCNC(=O)COCCOCCNC(=O)CC[C@H](NC(=O)CCCCCCCCCCCCC(=O)O)C(=O)O)C(=O)N[C@@H](CO)C(=O)N[C@@H](CO)C(=O)NCC(=O)N[C@@H](C)C(=O)N1CCC[C@H]1C(=O)N1CCC[C@H]1C(=O)N1CCC[C@H]1C(=O)N[C@@H](CO)C(N)=O` [Example 92], the 50% effective concentration (EC50) on hGCGR (0.1% bovine casein and 1.0% human serum albumin, 37° C., geometric mean, read-out: hGCGR EC50, nM (SEM, n)) is > 9950 nM; at hGCGR (setting [1]), > 9950 nM.
